Measurements published in ChEMBL document CHEMBL3352641, “Discovery of pyrrolo[1,2-b]pyridazine-3-carboxamides as Janus kinase (JAK) inhibitors” (Bioorg Med Chem Lett, 2014).
Each block holds one compound with its values, some of them ahead of it.

Experiments:
[1] = Fraction unbound in human serum; format: ADME, cell-free
[2] = molecular target: T1, Tyrosine-protein kinase JAK3 (Homo sapiens, UniProt P52333); test: Inhibition of JAK3 (unknown origin) by filter assay
T1 sequence (P52333 whole entry): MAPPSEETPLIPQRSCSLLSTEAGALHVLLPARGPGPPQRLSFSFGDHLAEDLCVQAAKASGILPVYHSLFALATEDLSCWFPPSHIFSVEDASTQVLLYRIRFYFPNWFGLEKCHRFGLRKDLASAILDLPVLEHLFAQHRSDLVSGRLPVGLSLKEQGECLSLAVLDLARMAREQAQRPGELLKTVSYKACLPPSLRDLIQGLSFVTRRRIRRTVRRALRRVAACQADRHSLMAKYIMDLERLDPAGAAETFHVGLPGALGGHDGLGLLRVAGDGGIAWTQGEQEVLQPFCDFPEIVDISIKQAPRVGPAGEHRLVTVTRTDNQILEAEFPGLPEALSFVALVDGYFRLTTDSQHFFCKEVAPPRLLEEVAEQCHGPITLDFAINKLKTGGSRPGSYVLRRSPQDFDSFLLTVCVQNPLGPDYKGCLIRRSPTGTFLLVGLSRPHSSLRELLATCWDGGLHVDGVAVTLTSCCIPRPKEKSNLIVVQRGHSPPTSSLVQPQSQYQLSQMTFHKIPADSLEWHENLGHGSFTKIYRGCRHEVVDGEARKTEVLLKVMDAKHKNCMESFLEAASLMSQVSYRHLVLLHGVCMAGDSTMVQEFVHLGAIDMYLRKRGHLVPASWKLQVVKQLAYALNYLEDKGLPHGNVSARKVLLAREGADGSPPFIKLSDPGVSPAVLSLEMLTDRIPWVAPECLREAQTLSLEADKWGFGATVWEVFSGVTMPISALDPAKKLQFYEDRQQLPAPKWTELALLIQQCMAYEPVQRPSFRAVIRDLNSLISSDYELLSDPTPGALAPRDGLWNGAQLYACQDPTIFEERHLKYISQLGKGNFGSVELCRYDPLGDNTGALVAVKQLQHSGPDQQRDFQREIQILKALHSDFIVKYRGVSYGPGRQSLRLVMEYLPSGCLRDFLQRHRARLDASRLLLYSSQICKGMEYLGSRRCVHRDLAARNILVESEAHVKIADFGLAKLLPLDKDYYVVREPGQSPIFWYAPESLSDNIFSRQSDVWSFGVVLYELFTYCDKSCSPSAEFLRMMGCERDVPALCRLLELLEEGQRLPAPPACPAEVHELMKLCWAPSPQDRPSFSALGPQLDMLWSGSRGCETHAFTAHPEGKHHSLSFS

[3] = molecular target: Tyrosine-protein kinase JAK2 (Homo sapiens, UniProt O60674); test: Inhibition of JAK2 (unknown origin) by caliper assay
Blood = test: Inhibition of IL2-induced IFN-gamma production in human whole blood incubated for 18 hrs by ELISA method; format: functional, tissue-based
[4] = molecular target: Tyrosine-protein kinase JAK1 (Homo sapiens, UniProt P23458); test: Inhibition of JAK1 (unknown origin) bycaliper assay
[5] = molecular target: Non-receptor tyrosine-protein kinase TYK2 (Homo sapiens, UniProt P29597); test: Inhibition of TYK2 (unknown origin) by caliper assay
[6] = Permeability by PAMPA method; format: ADME; settings: read-out: permeability
[7] = Protein binding in human serum; format: ADME, cell-free; settings: read-out: PB (converted)
[8] = Permeability in human Caco2 cells; format: ADME, cell-based; settings: Caco-2, read-out: permeability
[9] = Half life human liver microsomes; format: ADME
[10] = Oral bioavailability in balb/c mouse at 2 mg/kg; format: ADME, organism-based; settings: in vivo
[11] = AUC in balb/c mouse at 50 mg/kg, po; format: ADME, organism-based; design: dose 50 mg/kg, route oral; settings: plasma
Cytochrome P450 1A2 = molecular target: T2, Cytochrome P450 1A2 (Homo sapiens, UniProt P05177); test: Inhibition of CYP1A2 (unknown origin); format: ADME
T2 sequence (P05177 whole entry): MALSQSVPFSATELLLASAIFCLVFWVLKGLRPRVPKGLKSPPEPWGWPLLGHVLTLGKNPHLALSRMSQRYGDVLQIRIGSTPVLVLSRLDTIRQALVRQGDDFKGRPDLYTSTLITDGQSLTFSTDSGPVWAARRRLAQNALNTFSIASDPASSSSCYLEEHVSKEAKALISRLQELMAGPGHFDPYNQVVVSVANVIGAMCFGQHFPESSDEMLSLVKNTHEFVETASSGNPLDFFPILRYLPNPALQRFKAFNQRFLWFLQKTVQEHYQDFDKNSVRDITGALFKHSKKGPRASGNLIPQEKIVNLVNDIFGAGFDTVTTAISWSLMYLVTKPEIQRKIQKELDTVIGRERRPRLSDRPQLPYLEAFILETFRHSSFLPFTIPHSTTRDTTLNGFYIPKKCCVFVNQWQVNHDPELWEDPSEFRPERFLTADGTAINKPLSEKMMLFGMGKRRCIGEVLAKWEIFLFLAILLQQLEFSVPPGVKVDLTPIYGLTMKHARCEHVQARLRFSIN

[12] = AUC in balb/c mouse at 2 mg/kg, iv; format: ADME, organism-based; design: dose 2 mg/kg, route intravenous; settings: plasma
[13] = Cmax in balb/c mouse at 50 mg/kg, po; format: ADME, organism-based; design: dose 50 mg/kg, route oral; settings: in vivo
[14] = Cmax in balb/c mouse at 2 mg/kg, po; format: ADME, organism-based; design: dose 2 mg/kg, route oral; settings: in vivo
[15] = Cmax in balb/c mouse at 10 mg/kg, po; format: ADME, organism-based; design: dose 10 mg/kg, route oral; settings: in vivo
[16] = Half life in balb/c mouse at 50 mg/kg, po; format: ADME, organism-based; design: dose 50 mg/kg, route oral; settings: in vivo
[17] = Volume of distribution at steady state in balb/c mouse at 2 mg/kg, iv; format: ADME, organism-based; design: dose 2 mg/kg, route intravenous; settings: in vivo, read-out: Vdss
[18] = AUC in balb/c mouse at 2 mg/kg, po; format: ADME, organism-based; design: dose 2 mg/kg, route oral; settings: plasma
Cytochrome P450 2C9 = Cytochrome P450 2C9 (Homo sapiens, UniProt P11712); test: Inhibition of CYP2C9 (unknown origin); format: ADME
[19] = Half life in balb/c mouse at 2 mg/kg, po; format: ADME, organism-based; design: dose 2 mg/kg, route oral; settings: in vivo
[20] = Tmax in balb/c mouse at 10 mg/kg, po; format: ADME, organism-based; design: dose 10 mg/kg, route oral; settings: in vivo
Cytochrome P450 3A4 = Cytochrome P450 3A4 (Homo sapiens, UniProt P08684); test: Inhibition of CYP3A4 (unknown origin); format: ADME
[21] = Oral bioavailability in balb/c mouse at 10 mg/kg; format: ADME, organism-based; settings: in vivo
[22] = Half life in balb/c mouse at 10 mg/kg, po; format: ADME, organism-based; design: dose 10 mg/kg, route oral; settings: in vivo
[23] = Half life mouse liver microsomes; format: ADME
[24] = Tmax in balb/c mouse at 2 mg/kg, po; format: ADME, organism-based; design: dose 2 mg/kg, route oral; settings: in vivo
[25] = Half life in balb/c mouse at 2 mg/kg, iv; format: ADME, organism-based; design: dose 2 mg/kg, route intravenous; settings: in vivo
Cytochrome P450 2C8 = molecular target: T3, Cytochrome P450 2C8 (Homo sapiens, UniProt P10632); test: Inhibition of CYP2C8 (unknown origin); format: ADME
T3 sequence (P10632 whole entry): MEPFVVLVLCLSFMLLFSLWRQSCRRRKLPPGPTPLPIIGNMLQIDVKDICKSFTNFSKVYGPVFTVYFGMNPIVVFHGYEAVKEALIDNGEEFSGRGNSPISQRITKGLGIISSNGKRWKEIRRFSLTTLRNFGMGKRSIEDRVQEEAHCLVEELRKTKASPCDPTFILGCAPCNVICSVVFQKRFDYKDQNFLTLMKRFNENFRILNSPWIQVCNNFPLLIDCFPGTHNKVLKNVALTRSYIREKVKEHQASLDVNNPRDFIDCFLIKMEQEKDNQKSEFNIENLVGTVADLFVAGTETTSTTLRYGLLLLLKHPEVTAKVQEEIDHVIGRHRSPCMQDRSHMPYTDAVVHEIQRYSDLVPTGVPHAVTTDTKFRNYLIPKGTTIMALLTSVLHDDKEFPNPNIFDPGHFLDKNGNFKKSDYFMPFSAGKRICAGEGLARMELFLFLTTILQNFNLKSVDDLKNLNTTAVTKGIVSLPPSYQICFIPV

[26] = Tmax in balb/c mouse at 50 mg/kg, po; format: ADME, organism-based; design: dose 50 mg/kg, route oral; settings: in vivo
[27] = AUC in balb/c mouse at 10 mg/kg, po; format: ADME, organism-based; design: dose 10 mg/kg, route oral; settings: plasma
[28] = Clearance in balb/c mouse at 2 mg/kg, iv; format: ADME, organism-based; design: dose 2 mg/kg, route intravenous; settings: in vivo
[29] = Inhibition of […] (unknown origin); format: ADME, Homo sapiens
[30] = Oral bioavailability in balb/c mouse at 50 mg/kg; format: ADME, organism-based; settings: in vivo
Cytochrome P450 2D6 = Cytochrome P450 2D6 (Homo sapiens, UniProt P10635); test: Inhibition of CYP2D6 (unknown origin); format: ADME
Chain of Cytochrome P450 2D6 (P10635 whole entry): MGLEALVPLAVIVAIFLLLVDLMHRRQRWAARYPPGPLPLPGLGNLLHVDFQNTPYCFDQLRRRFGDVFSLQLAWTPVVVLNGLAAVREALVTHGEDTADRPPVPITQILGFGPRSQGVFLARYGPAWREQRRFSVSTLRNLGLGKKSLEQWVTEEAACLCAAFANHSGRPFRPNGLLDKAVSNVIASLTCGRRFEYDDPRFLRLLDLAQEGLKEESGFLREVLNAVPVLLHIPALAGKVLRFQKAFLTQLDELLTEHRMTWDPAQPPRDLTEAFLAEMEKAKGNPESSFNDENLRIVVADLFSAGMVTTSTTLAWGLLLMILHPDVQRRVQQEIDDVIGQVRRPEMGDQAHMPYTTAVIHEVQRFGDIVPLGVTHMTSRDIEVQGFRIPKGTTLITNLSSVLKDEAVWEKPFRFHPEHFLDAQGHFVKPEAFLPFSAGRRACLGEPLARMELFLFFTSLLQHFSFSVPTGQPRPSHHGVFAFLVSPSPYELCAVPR

Chain of Non-receptor tyrosine-protein kinase TYK2 (P29597 whole entry): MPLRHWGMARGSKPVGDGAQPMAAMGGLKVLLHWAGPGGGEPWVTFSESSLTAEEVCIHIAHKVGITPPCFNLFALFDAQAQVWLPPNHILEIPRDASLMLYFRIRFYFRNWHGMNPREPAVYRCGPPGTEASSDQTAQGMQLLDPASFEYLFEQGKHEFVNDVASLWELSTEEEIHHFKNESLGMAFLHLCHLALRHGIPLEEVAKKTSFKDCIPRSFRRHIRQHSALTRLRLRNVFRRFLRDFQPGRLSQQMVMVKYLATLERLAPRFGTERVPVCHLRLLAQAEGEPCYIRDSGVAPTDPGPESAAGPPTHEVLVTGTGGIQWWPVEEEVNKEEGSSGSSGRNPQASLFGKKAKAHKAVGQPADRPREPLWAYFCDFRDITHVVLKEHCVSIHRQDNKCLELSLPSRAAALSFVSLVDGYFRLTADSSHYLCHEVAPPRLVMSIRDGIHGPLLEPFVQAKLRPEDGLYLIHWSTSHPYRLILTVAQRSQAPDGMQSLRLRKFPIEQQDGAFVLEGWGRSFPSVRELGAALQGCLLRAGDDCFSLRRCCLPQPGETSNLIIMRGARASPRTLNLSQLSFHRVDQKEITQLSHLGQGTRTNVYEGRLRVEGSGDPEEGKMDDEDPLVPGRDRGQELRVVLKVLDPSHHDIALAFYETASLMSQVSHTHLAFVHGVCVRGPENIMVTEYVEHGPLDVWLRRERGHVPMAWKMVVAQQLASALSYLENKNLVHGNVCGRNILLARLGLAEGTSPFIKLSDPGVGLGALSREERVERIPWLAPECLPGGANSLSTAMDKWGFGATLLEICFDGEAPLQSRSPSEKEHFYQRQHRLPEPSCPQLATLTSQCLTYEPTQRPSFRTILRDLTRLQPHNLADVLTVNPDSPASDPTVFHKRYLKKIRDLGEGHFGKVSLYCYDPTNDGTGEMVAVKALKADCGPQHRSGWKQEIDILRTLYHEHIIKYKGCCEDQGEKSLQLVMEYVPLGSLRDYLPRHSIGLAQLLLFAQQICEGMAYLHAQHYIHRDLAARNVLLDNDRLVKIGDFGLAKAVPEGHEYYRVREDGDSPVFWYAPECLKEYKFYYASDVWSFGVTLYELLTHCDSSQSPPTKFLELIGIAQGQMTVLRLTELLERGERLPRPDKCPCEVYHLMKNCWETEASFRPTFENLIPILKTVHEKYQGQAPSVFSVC
Chain of Tyrosine-protein kinase JAK1 (P23458 whole entry): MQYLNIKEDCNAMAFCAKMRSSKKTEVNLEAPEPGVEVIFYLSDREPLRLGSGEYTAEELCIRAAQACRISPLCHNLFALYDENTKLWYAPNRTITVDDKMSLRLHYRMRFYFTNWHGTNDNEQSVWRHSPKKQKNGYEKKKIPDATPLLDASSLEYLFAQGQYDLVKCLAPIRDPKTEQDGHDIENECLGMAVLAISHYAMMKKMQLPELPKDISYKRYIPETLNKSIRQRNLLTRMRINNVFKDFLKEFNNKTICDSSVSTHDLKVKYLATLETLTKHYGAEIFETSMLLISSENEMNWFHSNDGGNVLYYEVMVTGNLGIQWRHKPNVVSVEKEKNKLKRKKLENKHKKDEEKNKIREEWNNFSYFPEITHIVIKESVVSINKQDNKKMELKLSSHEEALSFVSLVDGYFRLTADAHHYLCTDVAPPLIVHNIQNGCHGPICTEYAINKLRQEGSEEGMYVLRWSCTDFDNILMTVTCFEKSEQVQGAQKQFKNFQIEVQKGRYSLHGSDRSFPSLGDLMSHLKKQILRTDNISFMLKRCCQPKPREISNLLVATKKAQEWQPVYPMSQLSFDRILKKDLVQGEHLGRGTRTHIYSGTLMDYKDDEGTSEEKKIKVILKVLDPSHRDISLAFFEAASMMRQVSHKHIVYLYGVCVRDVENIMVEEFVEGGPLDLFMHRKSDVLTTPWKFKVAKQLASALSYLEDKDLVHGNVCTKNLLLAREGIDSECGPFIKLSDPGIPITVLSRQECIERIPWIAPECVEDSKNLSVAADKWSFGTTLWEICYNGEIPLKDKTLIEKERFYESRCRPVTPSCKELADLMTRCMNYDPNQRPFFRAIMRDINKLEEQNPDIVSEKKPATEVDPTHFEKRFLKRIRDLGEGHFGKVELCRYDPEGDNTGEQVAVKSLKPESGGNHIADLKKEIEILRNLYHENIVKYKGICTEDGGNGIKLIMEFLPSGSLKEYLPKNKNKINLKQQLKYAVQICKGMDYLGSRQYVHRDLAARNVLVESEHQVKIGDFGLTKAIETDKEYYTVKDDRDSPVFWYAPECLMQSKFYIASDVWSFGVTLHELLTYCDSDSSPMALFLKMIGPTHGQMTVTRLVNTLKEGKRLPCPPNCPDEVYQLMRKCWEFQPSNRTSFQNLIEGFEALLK
Chain of Tyrosine-protein kinase JAK2 (O60674 whole entry): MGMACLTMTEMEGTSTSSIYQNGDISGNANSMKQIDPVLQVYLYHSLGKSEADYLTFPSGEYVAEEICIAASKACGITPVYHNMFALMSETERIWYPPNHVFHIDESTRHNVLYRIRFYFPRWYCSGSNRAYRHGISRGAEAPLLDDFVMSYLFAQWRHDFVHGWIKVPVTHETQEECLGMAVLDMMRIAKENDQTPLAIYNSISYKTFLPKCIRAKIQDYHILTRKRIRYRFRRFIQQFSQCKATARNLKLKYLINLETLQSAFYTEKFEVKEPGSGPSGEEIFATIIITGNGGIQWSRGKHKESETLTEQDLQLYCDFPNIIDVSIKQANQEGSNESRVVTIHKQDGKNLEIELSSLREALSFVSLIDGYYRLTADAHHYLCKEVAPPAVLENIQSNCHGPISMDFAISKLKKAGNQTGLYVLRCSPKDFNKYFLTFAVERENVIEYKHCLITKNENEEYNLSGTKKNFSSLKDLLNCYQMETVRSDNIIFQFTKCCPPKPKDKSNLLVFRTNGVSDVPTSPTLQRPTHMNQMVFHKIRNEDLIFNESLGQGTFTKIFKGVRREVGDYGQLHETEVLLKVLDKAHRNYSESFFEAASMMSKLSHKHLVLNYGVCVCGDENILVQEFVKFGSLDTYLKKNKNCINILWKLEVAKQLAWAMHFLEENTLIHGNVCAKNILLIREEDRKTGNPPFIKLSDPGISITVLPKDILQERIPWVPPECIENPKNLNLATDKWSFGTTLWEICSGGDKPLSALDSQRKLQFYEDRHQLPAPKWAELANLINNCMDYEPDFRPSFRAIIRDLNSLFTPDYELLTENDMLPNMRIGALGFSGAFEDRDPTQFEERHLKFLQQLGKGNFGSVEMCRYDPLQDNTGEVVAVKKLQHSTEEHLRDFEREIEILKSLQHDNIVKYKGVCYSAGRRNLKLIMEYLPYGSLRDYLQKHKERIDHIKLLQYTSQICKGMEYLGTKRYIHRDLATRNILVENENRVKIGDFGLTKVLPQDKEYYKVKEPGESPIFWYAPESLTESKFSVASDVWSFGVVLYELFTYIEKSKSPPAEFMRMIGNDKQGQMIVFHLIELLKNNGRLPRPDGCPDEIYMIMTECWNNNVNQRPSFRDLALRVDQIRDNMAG
Chain of Cytochrome P450 2C9 (P11712 whole entry): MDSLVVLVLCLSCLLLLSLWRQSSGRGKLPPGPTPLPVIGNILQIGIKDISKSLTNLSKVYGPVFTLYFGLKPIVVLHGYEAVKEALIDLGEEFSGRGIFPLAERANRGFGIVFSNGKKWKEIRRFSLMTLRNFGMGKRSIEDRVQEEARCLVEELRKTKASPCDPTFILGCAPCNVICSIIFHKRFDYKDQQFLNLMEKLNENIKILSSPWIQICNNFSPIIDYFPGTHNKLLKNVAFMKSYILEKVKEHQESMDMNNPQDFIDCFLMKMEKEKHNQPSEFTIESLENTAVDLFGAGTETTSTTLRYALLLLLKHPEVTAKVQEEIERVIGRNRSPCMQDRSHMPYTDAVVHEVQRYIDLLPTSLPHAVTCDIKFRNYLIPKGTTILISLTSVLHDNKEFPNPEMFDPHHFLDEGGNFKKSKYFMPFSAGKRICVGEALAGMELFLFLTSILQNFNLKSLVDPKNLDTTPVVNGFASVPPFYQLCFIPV
Chain of Cytochrome P450 3A4 (P08684 whole entry): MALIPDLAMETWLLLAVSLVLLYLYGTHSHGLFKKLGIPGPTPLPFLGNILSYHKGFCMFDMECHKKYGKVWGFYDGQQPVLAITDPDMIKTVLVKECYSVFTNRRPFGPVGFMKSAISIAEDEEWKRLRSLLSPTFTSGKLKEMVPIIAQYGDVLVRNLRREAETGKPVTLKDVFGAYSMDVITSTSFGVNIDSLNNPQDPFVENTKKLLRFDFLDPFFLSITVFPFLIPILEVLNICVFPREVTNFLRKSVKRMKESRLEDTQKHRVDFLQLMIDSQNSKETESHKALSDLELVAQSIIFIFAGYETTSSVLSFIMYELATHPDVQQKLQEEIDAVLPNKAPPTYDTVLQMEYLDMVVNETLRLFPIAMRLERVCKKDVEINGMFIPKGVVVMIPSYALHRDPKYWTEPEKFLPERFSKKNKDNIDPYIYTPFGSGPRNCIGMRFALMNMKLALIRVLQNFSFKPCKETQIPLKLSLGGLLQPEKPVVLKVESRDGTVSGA

- fraction unbound [1]: 0.52
- IC50 [2]: 32 nM
- IC50 [3]: 280 nM
- IC50 (Blood): 180 nM
- IC50 [4]: 71 nM
- IC50 [5]: 52 nM
SMILES: CC1(C)[C@H](Nc2c(C(N)=O)cnn3cccc23)CC[C@@]1(C)N

- IC50 [2]: 8 nM
- Papp [6]: 86.2 ×10⁻⁶ cm/s
- fraction unbound [7]: 0.027
- Papp [8]: 19.2 ×10⁻⁶ cm/s
- IC50 [3]: 30 nM
- IC50 (Blood): 930 nM
- IC50 [4]: 48 nM
- IC50 [5]: 16 nM
SMILES: C[C@@H](Nc1c(C(N)=O)cnn2cccc12)C(C)(C)C

- IC50 [2]: 15 nM
- IC50 [3]: 61 nM
- IC50 (Blood): 1700 nM
- IC50 [4]: 50 nM
- IC50 [5]: 90 nM
SMILES: CC1(C)C[C@](C)(O)C[C@H]1Nc1c(C(N)=O)cnn2cccc12 (racemic)

- fraction unbound [1]: 0.11
- IC50 [2]: 1 nM
- half-life [9]: 20 min
- Papp [6]: 76.6 ×10⁻⁶ cm/s
- bioavailability [10]: 45%
- AUC [11]: 21 µM·h
- IC50 (Cytochrome P450 1A2): > 20000 nM
- AUC [12]: 2 µM·h
- Cmax [13]: 8200 nM
- Cmax [14]: 480 nM
- Cmax [15]: 2600 nM
- half-life [16]: 120 min
- Vd [17]: 4.8 L/kg
- AUC [18]: 0.87 µM·h
- IC50 (Cytochrome P450 2C9): > 20000 nM
- half-life [19]: 84 min
- Tmax [20]: 30 min
- Papp [8]: 25.6 ×10⁻⁶ cm/s
- IC50 (Cytochrome P450 3A4): > 20000 nM
- bioavailability [21]: 59%
- half-life [22]: 96 min
- half-life [23]: 34 min
- Tmax [24]: 30 min
- half-life [25]: 72 min
- IC50 [3]: 18 nM
- IC50 (Cytochrome P450 2C8): > 20000 nM
- Tmax [26]: 30 min
- AUC [27]: 5.7 µM·h
- clearance [28]: 60 mL/min/kg
- IC50 (Blood): 260 nM
- IC50 [29]: > 20000 nM
- IC50 [4]: 9 nM
- bioavailability [30]: 46%
- IC50 [5]: 2 nM
- IC50 (Cytochrome P450 2D6): > 20000 nM
SMILES: C[C@]1(F)CCC[C@H]1Nc1c(C(N)=O)cnn2cccc12

- fraction unbound [1]: 0.44
- IC50 [2]: 12 nM
- IC50 [3]: 130 nM
- IC50 (Blood): 260 nM
- IC50 [4]: 34 nM
- IC50 [5]: 110 nM
SMILES: CC1(C)[C@@H](N)CC[C@H]1Nc1c(C(N)=O)cnn2cccc12 (racemic)

- IC50 [2]: 24 nM
- IC50 [3]: 110 nM
- IC50 (Blood): 1500 nM
- IC50 [4]: 84 nM
- IC50 [5]: 34 nM
SMILES: C[C@]1(CO)CCC[C@H]1Nc1c(C(N)=O)cnn2cccc12 (racemic)

- IC50 [3]: 250 nM
- IC50 [4]: 170 nM
- IC50 [5]: 150 nM
SMILES: NC(=O)c1cnn2cccc2c1NC1CCCC1

- IC50 [2]: 69 nM
- IC50 [4]: 110 nM
SMILES: C[C@]1(O)CCC[C@H]1Nc1c(C(N)=O)cnn2cccc12 (racemic)

- fraction unbound [1]: 0.16
- IC50 [2]: 3 nM
- IC50 [3]: 31 nM
- IC50 (Blood): 360 nM
- IC50 [4]: 26 nM
- IC50 [5]: 7 nM
SMILES: CC1(C)[C@H](Nc2c(C(N)=O)cnn3cccc23)CC[C@@]1(C)O (racemic)

- IC50 [2]: 66 nM
- IC50 [3]: 130 nM
- IC50 [4]: 56 nM
- IC50 [5]: 130 nM
SMILES: CC1(C)CCC[C@@H]1Nc1c(C(N)=O)cnn2cccc12

- IC50 [2]: 140 nM
- IC50 [3]: 380 nM
- IC50 [4]: 250 nM
- IC50 [5]: 390 nM
SMILES: C[C@@]1(CO)CCC[C@H]1Nc1c(C(N)=O)cnn2cccc12 (racemic)

- IC50 [2]: 42 nM
- IC50 (Blood): 5300 nM
- IC50 [4]: 270 nM
SMILES: C[C@@]1(O)CCC[C@H]1Nc1c(C(N)=O)cnn2cccc12 (racemic)
